For one assay, the system named is Ramos cells. Nature of the assay: Cytotoxicity (cell death) in Ramos cells. It is filed as cell-based. The procedure: (§1) The compounds listed in Table 9 were tested for activity against F1F0-ATPase by measuring ATP synthesis and ATP hydrolysis. In addition, the compounds were assessed for cytotoxicity in Ramos cells Inhibition of ATP synthesis and hydrolysis by the F1F0-ATPase and cytotoxicity in Ramos cells was measured as described in K. M. Johnson et al. Chemistry & Biology 2005, 12, 485-496.

In assay [1] the target is T1, F1F0-ATPase (Bos taurus, UniProt P13621). As to the kind of experiment: Inhibition of ATP synthesis by the F1F0-ATPase. Format: biochemical. The following applies: IC40: concentration for 40% inhibition. The procedure:
as §1

Assay [2] has as its target T1, F1F0-ATPase. Nature of the assay: Inhibition of ATP hydrolysis by the F1F0-ATPase. Format: biochemical. As to conditions: IC40: concentration for 40% inhibition. The procedure:
as §1

On to `Cc1ccccc1NC(=NC(=O)c1cccc(Cl)c1)NCCc1c[nH]cn1` [III-8, (Z/E)-N-((2-(1H-imidazol-4-yl)ethylamino)(o-toluidino)methylene)-3-chlorobenzamide], for which, in the assay on Ramos cells (Ramos cells), the EC50 (in general, the concentration needed to bring the measured effect to its halfway point) is more than 30 µM. The “ATP Synthesis (IC40 μM)” value at F1F0-ATPase [1] is more than 10 µM. For the same compound, on F1F0-ATPase [2], the “ATP Hydrolysis (IC40 μM)” value is more than 30 µM.
`C[C@@H](Cc1c[nH]cn1)N/C(=N/C(=O)c1cccc(Cl)c1)Nc1ccc(-c2ccccc2)cc1` [IV-5, (S,Z/E)-N-((1-(1H-imidazol-4-yl)propan-2-ylamino)(biphenyl-4-ylamino)methylene)-3-chlorobenzamide] returned an EC50 in the assay with Ramos cells (Homo sapiens, Ramos) of less than 10 µM. The “ATP Synthesis (IC40 μM)” value on F1F0-ATPase [1] was less than 10 µM. The “ATP Hydrolysis (IC40 μM)” value on F1F0-ATPase [2] is less than 10 µM.

These data come from patent publication US8324258B2, “F1F0-ATPase inhibitors and related methods” (The Regents of the University of Michigan, priority 2007, dated 2012).
